# Reference: patent US12016312B2, “Animal models, screening methods, and treatment methods for intraocular diseases or disorders” (ZHUHAI QIWEI BIO-TECHNOLOGY LTD., priority 2018, dated 2024)
# “Also recorded” adds a separate entry of the source.
# Tests used:
# Bacillus megaterium [1] = test: Antibiotic sensitivity screening test in petri dishes (MIC method); type: cell-based; conditions: 10^-1 to 10^-5 mg/mL
# Procedure: (§1) The bacterial culture medium (HuanKai Microbial, Guangzhou, China) containing peptone 5 g, beef extract 3 g, NaCl 5 g, agar 15 g, and MnSO4 5 mg in 1 L ddH2O (pH=7.2) was prepared in conical flask (Drtech, Guangzhou, China) and was sterilized in the autoclave (HIRAYAMA, HEV-50, Japan) at 121° C. for 30 min. Bacillus megaterium (total 1*10^7 per culture) was cultured in the incubator (HettCube 200, Germany) at 37° C. for 24 h.
# To test whether antibiotics can control the growth of Bacillus megaterium in vitro and in vivo, we first carried out an antibiotic sensitivity screening test in petri dishes which were made in example 1. The sensitivity of Bacillus megaterium to several major antimicrobial agents including ampicillin, vancomycin, neomycin, metronidazole and tetracycline were examined using the minimum inhibitory concentration (MIC) method. Ampicillin, vancomycin, neomycin, metronidazole, and tetracycline (purchased from Sigma, USA) at various concentrations (10^−1, 10^−2, 10^−3, 10^−4, 10^−5 mg/mL) were added into cooled medium.
# as §1, with “Bacillus megaterium (total 1*10^7 per culture) was cultured in the incubator (HettCube 200, Germany) at 37° C. for 24 h.” left out
# Bacillus megaterium [2] = test: Bacillus megaterium subretinal inoculation model, drusenoid pathology in monkey retinal tissues; type: in vivo, Macaca fascicularis; conditions: intravitreous, 0.5 mg, one injection on Day 2 post bacterial inoculation; macaque
# Procedure: The macaques were sedated by intramuscular injection of a mixture of tiletamine hydrochloride (2.5 mg/kg) and xolazepam hydrochloride (2.5 mg/kg). After instilling topical anesthesia (0.5% proparacaine hydrochloride), the eyes were immediately visualized in vivo using a light microscope. The pupils were then dilated with 0.5% tropicamide and 0.5% phenylephrine to obtain the fundus photographs. […] Under microscopic monitoring, 20 μl of PBS (with or without bacteria) was injected into the subretinal space between photo receptors and RPE (retinal pigment epithelium), using a NanoFil Syringe Nanofil-100 for Microinjection (World Precision Instruments, USA). All procedures were done using sterile instruments. The macaque was euthanized 47 days post inoculation and the eyeball was enucleated for histological analyses. The eyeballs were fixed in 4% paraformaldehyde for 48 h and then embedded in paraffin. Sections were cut on a microtome at 6 μm and stained with H&E.
# We examined whether subretinal inoculation of AH and VH cultures, as well as the cultured single species of B. megaterium led to AMD like pathology in macaque. About 20 CFU of bacteria (in 20 μl PBS) from AH, VH, and B. megaterium cultures were injected subretinally and PBS was used as a control (illustrated in FIG. 6). […]
compound,measurement,setting,value
neomycin,sensitivity of Bacillus megaterium to antimicrobial agents (control of growth in vitro),"Bacillus megaterium [1]; 1*10^7 bacteria per culture, 37° C., 24 h",most sensitive; also recorded: best in vitro activity
CN[C@H](CC(C)C)C(=O)N[C@H]1C(=O)N[C@@H](CC(N)=O)C(=O)N[C@H]2C(=O)N[C@H]3C(=O)N[C@H](C(=O)N[C@H](C(=O)O)c4cc(O)cc(O)c4-c4cc3ccc4O)[C@H](O)c3ccc(c(Cl)c3)Oc3cc2cc(c3O[C@@H]2O[C@H](CO)[C@@H](O)[C@H](O)[C@H]2O[C@H]2C[C@](C)(N)[C@H](O)[C@H](C)O2)Oc2ccc(cc2Cl)[C@H]1O [vancomycin],size of drusenoid lesion in retinal tissue,Bacillus megaterium [2],reduce drusenoid lesion; also recorded: reduction in the size of drusenoid lesion
Cc1ncc([N+](=O)[O-])n1CCO [metronidazole],fold less effective in controlling the growth of Bacillus megaterium (relative to neomycin),Bacillus megaterium [1],10000 fold
